Measurements published in patent US11370798B2 (Vertex Pharmaceuticals Incorporated, priority 2012, dated 2022).

Tested on: HCT116 colorectal cancer cells
Assay: Cisplatin sensitization assay (96 h cell viability MTS);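 further: Test-compound concentration that lowers the Cisplatin IC50 by a set fold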
Assay type: cell-based
Conditions: compound and Cisplatin added simultaneously, Cisplatin sensitization value
In short: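 Compound and cisplatin added together as a full matrix of 2-fold serial dilutions from a top final concentration of 10 μM; cells incubated 96 h at 37° C, 5% CO2. Viability then read by MTS after 1 h further incubation; sensitization value reported in μM bins.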

Row | Structure (SMILES) | Cisplatin Sensitization Assay
1 | Nc1nn2cc(Cl)cnc2c1C(=O)Nc1cnccc1N1CCN2CCC[C@@H]2C1 [I-N-65, (R)-2-amino-6-chloro-N-(4-(hexahydropyrrolo[1,2-a]pyrazin-2(1H)-yl)pyridin-3-yl)pyrazolo[1,5-a]pyrimidine-3-carboxamide] | + (Cisplatin sensitization value>0.2 μM but <5 μM)
2 | CN1CCC(S(=O)(=O)N2CCN(c3c(F)cncc3NC(=O)c3c(N)nn4cc(F)cnc34)CC2)CC1 [I-N-175, 2-amino-6-fluoro-N-(5-fluoro-4-(4-((1-methylpiperidin-4-yl)sulfonyl)piperazin-1-yl)pyridin-3-yl)pyrazolo[1,5-a]pyrimidine-3-carboxamide] | +++ (Cisplatin sensitization value of <0.02 μM)
3 | Cc1nc(C(=O)N2CCN(C)CC2)ccc1-c1ccncc1NC(=O)c1c(N)nn2cc(F)cnc12 [I-C-39, 2-amino-6-fluoro-N-(2-methyl-6-(4-methylpiperazine-1-carbonyl)-[3,4′-bipyridin]-3′-yl)pyrazolo[1,5-a]pyrimidine-3-carboxamide] | +++ (Cisplatin sensitization value of <0.02 μM)
4 | Nc1nn2cc(F)cnc2c1C(=O)Nc1cnccc1CN1CCCC1=O [I-C-76, 2-amino-6-fluoro-N-(4-((2-oxopyrrolidin-1-yl)methyl)pyridin-3-yl)pyrazolo[1,5-a]pyrimidine-3-carboxamide] | + (Cisplatin sensitization value>0.2 μM but <5 μM)
5 | Nc1nn2cc(Cl)cnc2c1C(=O)Nc1cnccc1O[C@@H]1CCNC1 [I-O-77, (R)-2-amino-6-chloro-N-(4-(pyrrolidin-3-yloxy)pyridin-3-yl)pyrazolo[1,5-a]pyrimidine-3-carboxamide] | ++ (Cisplatin sensitization value>0.02 μM but <0.2 μM)
6 | N#CCc1cnc2c(C(=O)Nc3cnccc3O[C@H]3CCOC3)c(N)nn2c1 [I-O-42, (S)-2-amino-6-(cyanomethyl)-N-(4-((tetrahydrofuran-3-yl)oxy)pyridin-3-yl)pyrazolo[1,5-a]pyrimidine-3-carboxamide] | +++ (Cisplatin sensitization value of <0.02 μM)
7 | Nc1nn2cc(F)cnc2c1C(=O)Nc1cncc(F)c1N1CCC(n2ccnc2)CC1 [I-N-288, N-(4-(4-(1H-imidazol-1-yl)piperidin-1-yl)-5-fluoropyridin-3-yl)-2-amino-6-fluoropyrazolo[1,5-a]pyrimidine-3-carboxamide] | +++ (Cisplatin sensitization value of <0.02 μM)
8 | CN1CCN(c2c(NC(=O)c3c(N)nn4cc(F)cnc34)cncc2C2CC2)CC1 [I-N-5, 2-amino-N-(5-cyclopropyl-4-(4-methylpiperazin-1-yl)pyridin-3-yl)-6-fluoropyrazolo[1,5-a]pyrimidine-3-carboxamide] | ++ (Cisplatin sensitization value>0.02 μM but <0.2 μM)
9 | CN1CCOC[C@@H]1c1ccc(-c2ccncc2NC(=O)c2c(N)nn3cc(F)cnc23)cc1 [I-C-66, (S)-2-amino-6-fluoro-N-(4-(4-(4-methylmorpholin-3-yl)phenyl)pyridin-3-yl)pyrazolo[1,5-a]pyrimidine-3-carboxamide] | +++ (Cisplatin sensitization value of <0.02 μM)
10 | CN1CCN(c2ccncc2NC(=O)c2c(N)nn3cc(C(C)(C)C#N)cnc23)CC1 [I-N-76, 2-amino-6-(2-cyanopropan-2-yl)-N-(4-(4-methylpiperazin-1-yl)pyridin-3-yl)pyrazolo[1,5-a]pyrimidine-3-carboxamide] | +++ (Cisplatin sensitization value of <0.02 μM)
11 | CN1CC(C(=O)N2CCN(c3c(F)cncc3NC(=O)c3c(N)nn4cc(F)cnc34)CC2)C1 [I-N-194] | +++ (Cisplatin sensitization value of <0.02 μM)
12 | Nc1nn2cc(F)cnc2c1C(=O)Nc1cncc(F)c1N1CCN2C(=O)CCC[C@@H]2C1 [I-N-280, (R)-2-amino-6-fluoro-N-(5-fluoro-4-(6-oxohexahydro-1H-pyrido[1,2-a]pyrazin-2(6H)-yl)pyridin-3-yl)pyrazolo[1,5-a]pyrimidine-3-carboxamide] | +++ (Cisplatin sensitization value of <0.02 μM)
13 | CN1CCC(Oc2ccncc2NC(=O)c2c(N)nn3cc(F)cnc23)CC1 [I-O-12, 2-amino-6-fluoro-N-(4-((1-methylpiperidin-4-yl)oxy)pyridin-3-yl)pyrazolo[1,5-a]pyrimidine-3-carboxamide] | +++ (Cisplatin sensitization value of <0.02 μM)
14 | Nc1nn2cc(F)cnc2c1C(=O)Nc1cnccc1-c1ccc(C(=O)N2CCN3CCC2CC3)cc1F [I-C-50, N-(4-(4-(1,4-diazabicyclo[3.2.2]nonane-4-carbonyl)-2-fluorophenyl)pyridin-3-yl)-2-amino-6-fluoropyrazolo[1,5-a]pyrimidine-3-carboxamide] | +++ (Cisplatin sensitization value of <0.02 μM)
15 | Nc1nn2cc(F)cnc2c1C(=O)Nc1cnccc1-n1ccnc1C(F)(F)F [I-N-219, 2-amino-6-fluoro-N-(4-(2-(trifluoromethyl)-1H-imidazol-1-yl)pyridin-3-yl)pyrazolo[1,5-a]pyrimidine-3-carboxamide] | +++ (Cisplatin sensitization value of <0.02 μM)
16 | Nc1nn2cc(F)cnc2c1C(=O)Nc1cnccc1C1CCN(C(=O)C23CCN(CC2)CC3)CC1 [I-C-18, 2-amino-6-fluoro-N-(4-(1-(quinuclidine-4-carbonyl)piperidin-4-yl)pyridin-3-yl)pyrazolo[1,5-a]pyrimidine-3-carboxamide] | + (Cisplatin sensitization value>0.2 μM but <5 μM)
17 | N#CCc1cnc2c(C(=O)Nc3cnccc3OCCN)c(N)nn2c1 [I-O-83, 2-amino-N-(4-(2-aminoethoxy)pyridin-3-yl)-6-(cyanomethyl)pyrazolo[1,5-a]pyrimidine-3-carboxamide] | +++ (Cisplatin sensitization value of <0.02 μM)
18 | Cc1cnccc1-c1ccncc1NC(=O)c1c(N)nn2cc(F)cnc12 [I-C-29, 2-amino-6-fluoro-N-(3′-methyl-[4,4′-bipyridin]-3-yl)pyrazolo[1,5-a]pyrimidine-3-carboxamide] | +++ (Cisplatin sensitization value of <0.02 μM)
19 | CC1(N2CCN(c3ccncc3NC(=O)c3c(N)nn4cc(F)cnc34)CC2)COC1 [I-N-62, 2-amino-6-fluoro-N-(4-(4-(3-methyloxetan-3-yl)piperazin-1-yl)pyridin-3-yl)pyrazolo[1,5-a]pyrimidine-3-carboxamide] | ++ (Cisplatin sensitization value>0.02 μM but <0.2 μM)
20 | CC(=O)N1CC2(CCN(c3ccncc3NC(=O)c3c(N)nn4cc(F)cnc34)CC2)C1 [I-N-251, N-(4-(2-acetyl-2,7-diazaspiro[3.5]nonan-7-yl)pyridin-3-yl)-2-amino-6-fluoropyrazolo[1,5-a]pyrimidine-3-carboxamide] | +++ (Cisplatin sensitization value of <0.02 μM)
21 | Nc1nn2cc(F)cnc2c1C(=O)Nc1cnccc1-c1ccc(C(=O)N2CCN(C3COC3)CC2)cc1 [I-C-49, 2-amino-6-fluoro-N-(4-(4-(4-(oxetan-3-yl)piperazine-1-carbonyl)phenyl)pyridin-3-yl)pyrazolo[1,5-a]pyrimidine-3-carboxamide] | +++ (Cisplatin sensitization value of <0.02 μM)
22 | Nc1nn2cc(F)cnc2c1C(=O)Nc1cncc(F)c1N1CCC(C(=O)NC2COC2)CC1 [I-G-37, 2-amino-6-fluoro-N-(5-fluoro-4-(4-(oxetan-3-ylcarbamoyl)piperidin-1-yl)pyridin-3-yl)pyrazolo[1,5-a]pyrimidine-3-carboxamide] | ++ (Cisplatin sensitization value>0.02 μM but <0.2 μM)
23 | Nc1nn2cc(F)cnc2c1C(=O)Nc1cncc(F)c1N1CCN2C(=O)CCCC2C1 (centres unmarked) [I-N-277, 2-amino-6-fluoro-N-(5-fluoro-4-(6-oxohexahydro-1H-pyrido[1,2-a]pyrazin-2(6H)-yl)pyridin-3-yl)pyrazolo[1,5-a]pyrimidine-3-carboxamide] | +++ (Cisplatin sensitization value of <0.02 μM)
24 | Nc1nn2cc(F)cnc2c1C(=O)Nc1cncc(F)c1N1CCC(N2CCOCC2)CC1 [I-N-189, 2-amino-6-fluoro-N-(5-fluoro-4-(4-morpholinopiperidin-1-yl)pyridin-3-yl)pyrazolo[1,5-a]pyrimidine-3-carboxamide] | +++ (Cisplatin sensitization value of <0.02 μM)
25 | CN1CCN(C(=O)[C@H]2CC[C@@H](Oc3ccncc3NC(=O)c3c(N)nn4cc(F)cnc34)CC2)CC1 [I-O-19, 2-amino-6-fluoro-N-(4-(((1s,4s)-4-(4-methylpiperazine-1-carbonyl)cyclohexyl)oxy)pyridin-3-yl)pyrazolo[1,5-a]pyrimidine-3-carboxamide] | +++ (Cisplatin sensitization value of <0.02 μM)
26 | CN1CCC[C@@H]1C(=O)N1CCN(c2ccncc2NC(=O)c2c(N)nn3cc(F)cnc23)CC1 [I-N-199, (R)-2-amino-6-fluoro-N-(4-(4-(1-methylpyrrolidine-2-carbonyl)piperazin-1-yl)pyridin-3-yl)pyrazolo[1,5-a]pyrimidine-3-carboxamide] | +++ (Cisplatin sensitization value of <0.02 μM)
27 | CN1CC(N2CCN(C(=O)C3CCN(c4c(F)cncc4NC(=O)c4c(N)nn5cc(F)cnc45)CC3)CC2)C1 [I-G-96, 2-amino-6-fluoro-N-(5-fluoro-4-(4-(4-(1-methylazetidin-3-yl)piperazine-1-carbonyl)piperidin-1-yl)pyridin-3-yl)pyrazolo[1,5-a]pyrimidine-3-carboxamide] | +++ (Cisplatin sensitization value of <0.02 μM)
28 | Nc1nn2cc(F)cnc2c1C(=O)Nc1cnccc1N1CCN(C2CCOC2)CC1 (racemic) [I-N-19, (R,S)-2-amino-6-fluoro-N-(4-(4-(tetrahydrofuran-3-yl)piperazin-1-yl)pyridin-3-yl)pyrazolo[1,5-a]pyrimidine-3-carboxamide] | +++ (Cisplatin sensitization value of <0.02 μM)
29 | CN(C)CCCN(C)C(=O)C1CCN(c2c(F)cncc2NC(=O)c2c(N)nn3cc(F)cnc23)CC1 [I-G-16, 2-amino-N-(4-(4-((3-(dimethylamino)propyl)(methyl)carbamoyl)piperidin-1-yl)-5-fluoropyridin-3-yl)-6-fluoropyrazolo[1,5-a]pyrimidine-3-carboxamide] | +++ (Cisplatin sensitization value of <0.02 μM)
